Each structure is given as a SMILES string.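 96-well plates; 48 h exposure; 5 concentrations. Endpoints by linear interpolation between flanking doses. Not reached: highest tested concentration assigned. GI50: concentration for 50% inhibition of growth. TGI denotes the concentration required for complete inhibition of growth.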

What all share (experiment): NCI tumour cell line growth inhibition, 48 h
For assay [1], the system named is COLO 205 colon.
In assay [2] the test system is TK-10 renal.
In assay [3] the test system is K-562 leukemia.
Assay [4] concerns KM12 colon.
Assay [5] has as its system LOX IMVI melanoma.
In assay [6] the test system is UO-31 renal.
Assay [7] relates to A549 NSCLC.

As to `CCOC(=O)c1nc2ccc(C(F)(F)F)cc2nc1Oc1cc(OC)cc(OC)c1`, the TGI in assay [1], in assay [2], in assay [3], in assay [4], in assay [5] and in assay [6] was greater than 100 µM each time. The same compound had a TGI in assay [7] greater than 100 µM.

Take `NNC(=O)Cn1c2ccc(Br)cc2c2nc3ccccc3nc21`: the TGI in assay [1], in assay [2], in assay [3], in assay [4], in assay [6] and in assay [7] was greater than 100 µM in each case.

For `CC(=O)Nc1ccc(OC2=CCN(C)CC2)cc1`, the TGI in assay [1], in assay [2], in assay [3], in assay [4], in assay [5] and in assay [6] was greater than 100 µM each time. For the same compound, the TGI in assay [7] is greater than 100 µM.

Take `CC1(C)CC(=O)c2c(nc3ccc4ccccc4c3c2-c2ccc(NC(=O)CCCCCCCCC(=O)Nc3ccc(-c4c5c(nc6ccc7ccccc7c46)CC(C)(C)CC5=O)cc3)cc2)C1`: the TGI in assay [1], in assay [2], in assay [3], in assay [4], in assay [5] and in assay [6] was greater than 100 µM each time. In assay [7], the TGI was greater than 100 µM.

For the compound `Nc1ccccc1CC(O)C(=O)O` (centres undefined), the TGI in assay [1], in assay [2], in assay [3], in assay [4], in assay [5] and in assay [7] was greater than 100 µM throughout.

Take `Nc1ncnc2c1nnn2C1CCC(CP(=O)(O)O)C1` (centres undefined): the TGI in assay [1], in assay [2], in assay [3], in assay [4], in assay [5] and in assay [6] was greater than 100 µM in each case. Moreover, the TGI in assay [7] is greater than 100 µM.

As for `COc1ccc(-n2c(=O)n(C)c(=O)n2-c2ccc(OC)cc2)cc1`, the TGI in assay [1], in assay [2], in assay [3], in assay [4], in assay [5] and in assay [6] was greater than 100 µM in each case. The compound further came in with a TGI in assay [7] greater than 100 µM.

With `O=C(OCCN=c1c2ccccc2ccc2ccccc12)c1ccc([N+](=O)[O-])cc1`, the TGI in assay [1], in assay [2], in assay [3], in assay [4], in assay [5] and in assay [6] was greater than 100 µM throughout. Also, in assay [7], the TGI is greater than 100 µM.

On to `CCOC(=O)C(NC(=O)CC)(Nc1cc(C)on1)C(F)(F)F` (centres undefined), for which the TGI in assay [1], in assay [2], in assay [3], in assay [5], in assay [6] and in assay [7] was greater than 100 µM each time.

Regarding `CC1CC/C(=C\c2ccc(Cl)cc2)C2OC(N)=C(C#N)C(c3ccc(Cl)cc3)=C12` (centres undefined), the TGI worked out at 25.2 µM in assay [1]; 41.3 µM in assay [2]; 51.8 µM in assay [3]; 28.8 µM in assay [4]; 26.6 µM in assay [5]; 24.9 µM in assay [6].

As for `CC(C)(Oc1ccc(Cl)cc1)C(=O)N(C(=O)N1CCC(c2ccccc2)CC1)c1ccccc1`, the TGI was greater than 62.5 µM in assay [1]; greater than 100 µM in assay [2]; greater than 100 µM in assay [3]; greater than 100 µM in assay [4]; greater than 100 µM in assay [5]; greater than 100 µM in assay [6]. Also, the TGI in assay [7] was greater than 100 µM.

For `O=C(Cn1c(C(=O)/C=C/c2cccs2)nc2ccccc21)c1ccc(Cl)cc1`, the TGI in assay [1] came out at 38.3 µM; in assay [2] it was 89.5 µM; in assay [3], 45.7 µM; in assay [4] it was 46.6 µM; in assay [5], 27.3 µM; in assay [6], 69.6 µM. Further, the TGI in assay [7] is greater than 100 µM.

Turning to `CCOC(=O)c1cnc2oc3ccc(O)cc3c2c1-c1ccccc1`, the TGI in assay [1], in assay [2], in assay [3], in assay [4], in assay [5] and in assay [7] was greater than 100 µM each time. Also, the GI50 in assay [4] is 5.11 µM.

In the case of `COc1ccc(-c2cc(-c3ccc(Nc4ccnc5cc(Cl)ccc45)cc3)[nH]c(=O)c2C#N)c2ccccc12`, the TGI in assay [1] is 6.89 µM; in assay [2], 29.7 µM; in assay [3], 6.35 µM; in assay [4] it was greater than 100 µM; in assay [6] it was 15.2 µM; in assay [7] it was greater than 52.9 µM.

Consider `CC1(C)C2C=CC1(C)C1(CC2)OCCO1` (centres undefined), for which the TGI in assay [1], in assay [2], in assay [3], in assay [4], in assay [5] and in assay [6] was greater than 100 µM throughout.

The values are drawn from PubChem BioAssay (NCI).
